Values joined by “and” are separate entries in the source; they are usually repeats but may differ in a detail not shown here. Equal values may be shown once.
What was measured:
143B cells = assay: Membrane potential measurement by TMRM fluorescence; assay type: cell-based, human
Method: 143B cells were seeded at 5 × 10^5 cells per 10 cm^2 well in DMEM containing 10 % FBS. […] The detached cells from each well were incubated in PBS containing 25 pg/mL tetramethylrhodamine, methyl ester (TMRM) and 20 μg/mL Hoescht stain for 20 min at 37 °C then washed twice and re-suspended in 200 μL PBS. TMRM fluorescence was detected using a NucleoCounter® NC 3000 cytometer with excitation at 530 nm and emission at 575 nm, with the Hoescht stain used to check for consistent cell density between samples.

[1] = biological target: mouse heart mitochondrial membranes (complex I) (Mus musculus, UniProt P03888+P03899+Q91WD5+Q9DC70); assay: NADH:O2 oxidoreduction by mouse heart mitochondrial membranes; assay type: biochemical; details: read-out: average % (rate, % of no-inhibitor control)
Method: (§1) Complex I and mitochondrial membranes were prepared from Bos taurus (bovine) heart. Intact mitochondria were isolated from rat liver and mouse heart and liver. Membranes were prepared from mouse heart mitochondria by 5 s bursts of sonication at 4 °C and collected by centrifugation (75,000 × g, 1 h).
(§2) Assays were performed at 32 °C in a SpectraMax 96-well plate reader. NADH:decylubiquinone oxidoreduction by complex I at 0.5 μg mL^−1 was measured in 20 mM Tris-HCl (pH 7.2), 0.15 % soy bean asolectin (Avanti Polar Lipids), and 0.15 % 3-((3-cholamidopropyl)dimethylammonium)-1-propanesulfonate (CHAPS, Merck Chemicals Ltd), with 200 μM decylubiquinone and 200 μM NADH, and monitored using ε340–380(NADH) = 4.81 mM^−1 cm^−1 [23]. Catalysis was initiated by addition of NADH and maximal rates determined by linear regression. NADH:O2 oxidoreduction by membranes was measured similarly but using 5 μg mL^−1 membranes in 10 mM Tris-HCl (pH 7.4) and 250 mM sucrose using 200 μM NADH and supplemented with 0.15 mM horse heart cytochrome c (Sigma-Aldrich Ltd.). Succinate:O2 oxidoreduction was measured using 40 μg mL^−1 membranes in 5 mM succinate in 10 mM Tris-HCl (pH 7.4) as described previously. Control experiments included NaCl (to match the ionic strength) or DMSO, as appropriate.
(§3) Experimental values are reported as mean averages ± standard deviation (SD) of technical replicates for large sample sizes and mean averages ± standard error of the mean (SEM) of technical replicates for small sample sizes. Data were analyzed by the unpaired two-tailed Student’s t test. IC50 values were determined using the standard dose-effect relationship (activity (%) = 100 × IC50 / (IC50 + [inhibitor]^m) with the Hill Slope (m) set to unity for purified complex I) and are reported with 95 % confidence intervals.

[2] = biological target: isolated bovine heart complex I (Bos taurus, UniProt P03887+P03898+P17694+P42026); assay: NADH:decylubiquinone oxidoreduction by isolated complex I; assay type: biochemical; details: bovine heart purified mitochondrial complex I, read-out: average % (rate, % of no-inhibitor control)
Method: as §1, §2, §3

[3] = biological target: bovine heart mitochondrial membranes (complex I) (Bos taurus, UniProt P03887+P03898+P17694+P42026); assay: NADH:O2 oxidoreduction by bovine heart mitochondrial membranes (complexes I-III-IV); assay type: biochemical; details: bovine heart mitochondrial membranes, read-out: average % (rate, % of no-inhibitor control)
Method: as §1, §2, §3

Sequence of bovine heart mitochondrial membranes (complex I) (P42026 38-216): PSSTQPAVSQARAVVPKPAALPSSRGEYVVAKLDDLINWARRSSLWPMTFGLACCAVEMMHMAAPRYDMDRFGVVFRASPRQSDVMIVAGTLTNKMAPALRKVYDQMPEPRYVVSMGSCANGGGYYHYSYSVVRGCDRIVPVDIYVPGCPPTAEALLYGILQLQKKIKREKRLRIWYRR
Sequence of bovine heart mitochondrial membranes (complex I) (P17694 34-463): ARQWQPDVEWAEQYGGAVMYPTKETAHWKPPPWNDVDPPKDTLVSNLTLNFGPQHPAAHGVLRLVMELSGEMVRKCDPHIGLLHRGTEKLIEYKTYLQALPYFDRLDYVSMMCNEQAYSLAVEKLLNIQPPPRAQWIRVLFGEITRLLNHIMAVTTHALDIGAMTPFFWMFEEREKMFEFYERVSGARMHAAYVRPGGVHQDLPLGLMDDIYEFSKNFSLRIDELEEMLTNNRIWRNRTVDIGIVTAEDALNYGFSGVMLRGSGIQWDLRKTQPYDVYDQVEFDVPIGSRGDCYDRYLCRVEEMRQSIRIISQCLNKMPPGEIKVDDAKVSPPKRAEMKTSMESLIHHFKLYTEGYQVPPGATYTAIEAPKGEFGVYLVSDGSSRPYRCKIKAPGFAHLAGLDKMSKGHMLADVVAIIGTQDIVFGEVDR
Sequence of bovine heart mitochondrial membranes (complex I) (P03887 whole entry): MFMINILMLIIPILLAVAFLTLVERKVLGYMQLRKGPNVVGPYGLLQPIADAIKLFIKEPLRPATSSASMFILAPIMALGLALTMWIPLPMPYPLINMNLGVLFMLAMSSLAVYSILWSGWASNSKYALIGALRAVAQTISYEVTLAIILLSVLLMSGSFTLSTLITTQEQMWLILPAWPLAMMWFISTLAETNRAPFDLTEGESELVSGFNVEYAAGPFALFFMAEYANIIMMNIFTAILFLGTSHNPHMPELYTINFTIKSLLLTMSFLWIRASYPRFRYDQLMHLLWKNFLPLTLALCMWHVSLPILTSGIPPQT
Sequence of bovine heart mitochondrial membranes (complex I) (P03898 whole entry): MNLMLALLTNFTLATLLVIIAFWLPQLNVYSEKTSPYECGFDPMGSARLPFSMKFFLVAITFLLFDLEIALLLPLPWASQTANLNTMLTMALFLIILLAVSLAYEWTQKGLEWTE
Sequence of isolated bovine heart complex I (P42026 38-216): as the sequence (P42026 38-216) above
Sequence of isolated bovine heart complex I (P17694 34-463): as the sequence (P17694 34-463) above
Sequence of isolated bovine heart complex I (P03898 whole entry): as the sequence (P03898 whole entry) above
Sequence of isolated bovine heart complex I (P03887 whole entry): as the sequence (P03887 whole entry) above
Sequence of mouse heart mitochondrial membranes (complex I) (P03899 whole entry): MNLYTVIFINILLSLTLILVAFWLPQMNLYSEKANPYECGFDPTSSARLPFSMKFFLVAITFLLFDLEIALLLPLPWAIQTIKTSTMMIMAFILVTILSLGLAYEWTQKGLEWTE
Sequence of mouse heart mitochondrial membranes (complex I) (P03888 whole entry): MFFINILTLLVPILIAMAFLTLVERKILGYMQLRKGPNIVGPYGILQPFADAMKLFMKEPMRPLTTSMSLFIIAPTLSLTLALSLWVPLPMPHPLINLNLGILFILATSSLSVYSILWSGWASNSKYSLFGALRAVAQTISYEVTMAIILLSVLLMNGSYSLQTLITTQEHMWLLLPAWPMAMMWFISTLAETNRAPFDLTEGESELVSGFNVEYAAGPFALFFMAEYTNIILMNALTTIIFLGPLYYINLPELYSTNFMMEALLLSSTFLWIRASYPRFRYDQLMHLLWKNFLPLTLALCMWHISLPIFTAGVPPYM
Sequence of mouse heart mitochondrial membranes (complex I) (Q9DC70 36-224): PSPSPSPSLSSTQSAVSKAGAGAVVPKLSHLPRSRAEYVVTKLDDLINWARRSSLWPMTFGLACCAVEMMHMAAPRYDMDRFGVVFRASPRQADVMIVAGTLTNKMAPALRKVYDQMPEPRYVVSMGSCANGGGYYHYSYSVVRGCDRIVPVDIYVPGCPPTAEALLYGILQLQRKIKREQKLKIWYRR
Sequence of mouse heart mitochondrial membranes (complex I) (Q91WD5 34-463): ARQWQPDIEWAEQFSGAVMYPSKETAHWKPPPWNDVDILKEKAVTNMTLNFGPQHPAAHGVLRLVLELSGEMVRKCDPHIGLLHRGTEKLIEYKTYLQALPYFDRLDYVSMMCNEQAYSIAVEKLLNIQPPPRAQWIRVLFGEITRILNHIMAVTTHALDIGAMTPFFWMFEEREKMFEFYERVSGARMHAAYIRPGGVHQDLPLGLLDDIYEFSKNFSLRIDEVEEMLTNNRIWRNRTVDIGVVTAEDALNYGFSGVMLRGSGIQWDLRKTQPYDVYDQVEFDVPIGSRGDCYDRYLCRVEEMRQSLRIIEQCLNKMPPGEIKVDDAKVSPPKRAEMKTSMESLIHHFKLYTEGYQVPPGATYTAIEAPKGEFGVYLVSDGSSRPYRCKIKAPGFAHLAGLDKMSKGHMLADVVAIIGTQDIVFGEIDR

SMILES: N#CC(C#N)=NNc1ccc(OC(F)(F)F)cc1 [FCCP, carbonyl cyanide-4-(trifluoromethoxy)phenylhydrazone]
- TMRM fluorescence, % of the control value (143B cells; after 6.5 h, phenformin at IC50/10 (34 μM), FCCP at 1 μM, n = 3): 13.43 ± 1.7%
- mean-y (TMRM) (143B cells; individual replicates, phenformin 6.5 hours): 1862.7 and 2673.4 and 1873.5
- TMRM average (143B cells; n 3, phenformin 6.5 hours): 2136.53
- TMRM average, % control (143B cells; n 3, phenformin 6.5 hours): 13.43 % control

SMILES: N=C(N)N=C(N)Nc1ccccc1 [compound2]
- remaining activity at 25 µM ([1]; inhibitor 0.025 mM): 100%
- remaining activity at 50 µM ([1]; inhibitor 0.05 mM): 91.6%
- remaining activity at 130 µM ([1]; inhibitor 0.13 mM): 95.5%
- remaining activity at 250 µM ([1]; inhibitor 0.25 mM): 81.9%
- remaining activity at 500 µM ([1]; inhibitor 0.50 mM): 59.6%
- remaining activity at 1250 µM ([1]; inhibitor 1.25 mM): 40.4%
- remaining activity at 2500 µM ([1]; inhibitor 2.50 mM): 27%
- remaining activity at 50 µM ([2]; inhibitor 0.05 mM): 89%
- remaining activity at 100 µM ([2]; inhibitor 0.10 mM): 82.1%
- remaining activity at 200 µM ([2]; inhibitor 0.20 mM): 70%
- remaining activity at 400 µM ([2]; inhibitor 0.40 mM): 50.6%
- remaining activity at 1000 µM ([2]; inhibitor 1.00 mM): 33.6%
- remaining activity at 2000 µM ([2]; inhibitor 2.00 mM): 17.4%
- remaining activity at 2500 µM ([2]; inhibitor 2.50 mM): 15.2%
- remaining activity at 25 µM ([3]; inhibitor 0.025 mM): 91.2%
- remaining activity at 50 µM ([3]; inhibitor 0.05 mM): 80.9%
- remaining activity at 120 µM ([3]; inhibitor 0.12 mM): 74.7%
- remaining activity at 250 µM ([3]; inhibitor 0.25 mM): 59.3%
- remaining activity at 500 µM ([3]; inhibitor 0.50 mM): 43.6%
- remaining activity at 1250 µM ([3]; inhibitor 1.25 mM): 32%
- remaining activity at 2500 µM ([3]; inhibitor 2.50 mM): 21.2%

From article PMC4977651, “Molecular features of biguanides required for targeting of mitochondrial respiratory complex I and activation of AMP-kinase” (BMC Biology, 2016)
